The NIST ThermoML archive (doi:10.1021/je800110r)

Conditions: 303.16 K, Liquid, Vibrating tube method

CCCCCCCCCC [decane]
Conditions | mass density [kg/m3]
14288 kPa | 733.4
14319 kPa | 733.4
14353 kPa | 733.4
14376 kPa | 733.5
14407 kPa | 733.3
14434 kPa | 733.6
14457 kPa | 733.5
14493 kPa | 733.5
14524 kPa | 733.5
14547 kPa | 733.5
14586 kPa | 733.6
14617 kPa | 733.7
14640 kPa | 733.8
14673 kPa | 733.7
14705 kPa | 733.6
14734 kPa | 733.7
14767 kPa | 733.7
14792 kPa | 733.7
14822 kPa | 733.6
14848 kPa | 733.7
14871 kPa | 733.8
14896 kPa | 733.8
14923 kPa | 733.7
14942 kPa | 734
14976 kPa | 734
14997 kPa | 733.8
15016 kPa | 733.9
15041 kPa | 733.8
15066 kPa | 734
15088 kPa | 733.9
15110 kPa | 734
15133 kPa | 734
15151 kPa | 734
15180 kPa | 734
15209 kPa | 734.1
15228 kPa | 734.1
15257 kPa | 734.1
15283 kPa | 733.9
15302 kPa | 734.1
15329 kPa | 734.1
15355 kPa | 734.2
15378 kPa | 734.3
15404 kPa | 734.2
15434 kPa | 734.3
15454 kPa | 734.3
15481 kPa | 734.3
15504 kPa | 734.2
15524 kPa | 734.3
15557 kPa | 734.3
15584 kPa | 734.2
15605 kPa | 734.4
15639 kPa | 734.4
15669 kPa | 734.3
15690 kPa | 734.4
15720 kPa | 734.3
15744 kPa | 734.5
15769 kPa | 734.4
15790 kPa | 734.3
15814 kPa | 734.5
15838 kPa | 734.6
15867 kPa | 734.4
15889 kPa | 734.5
15918 kPa | 734.5
15947 kPa | 734.5
15968 kPa | 734.6
15997 kPa | 734.6
16029 kPa | 734.6
16050 kPa | 734.6
16076 kPa | 734.7
16098 kPa | 734.8
16123 kPa | 734.7
16149 kPa | 734.7
16172 kPa | 734.7
16206 kPa | 734.6
16237 kPa | 734.7
16261 kPa | 734.7
16288 kPa | 734.7
16311 kPa | 734.9
16331 kPa | 734.8
16355 kPa | 734.9
16372 kPa | 734.9
16395 kPa | 734.8
16413 kPa | 734.8
16443 kPa | 734.9
16470 kPa | 735
16490 kPa | 735.1
16511 kPa | 734.9
16531 kPa | 735.1
16553 kPa | 735
16574 kPa | 734.9
16600 kPa | 735
16618 kPa | 735.1
16642 kPa | 735
16661 kPa | 734.8
16691 kPa | 735.2
16715 kPa | 735
16733 kPa | 735.2
16758 kPa | 735.1
16785 kPa | 735.2
16800 kPa | 735.2
16831 kPa | 735.2
16853 kPa | 735.2
16878 kPa | 735.1
16902 kPa | 735.2
16924 kPa | 735.2
16940 kPa | 735.2
16968 kPa | 735.3
16994 kPa | 735.3
17016 kPa | 735.3
17041 kPa | 735.4
17063 kPa | 735.4
17084 kPa | 735.4
17107 kPa | 735.3
17129 kPa | 735.4
17149 kPa | 735.5
17181 kPa | 735.4
17207 kPa | 735.3
17225 kPa | 735.6
17252 kPa | 735.5
17278 kPa | 735.6
17298 kPa | 735.5
17331 kPa | 735.5
17354 kPa | 735.5
17377 kPa | 735.5
17400 kPa | 735.5
17419 kPa | 735.5
17449 kPa | 735.7
17479 kPa | 735.7
17503 kPa | 735.7
17533 kPa | 735.6
17557 kPa | 735.7
17581 kPa | 735.7
17601 kPa | 735.8
17625 kPa | 735.8
17645 kPa | 735.7
17673 kPa | 735.9
